In patent publication US9682085B2, “Anti-proprotein convertase subtilisin kexin type 9 (anti-PCSK9) compounds and methods of using the same in the treatment and/or prevention of cardiovascular diseases” (Shifa Biomedical Corporation, priority 2013, dated 2017):

Columns and labels:
mice fed high fat diet = experiment: Test for efficacy in animal model (mice fed high fat diet); format: in vivo, mice (C57BL/6)
Method: SBC-115,076, and SBC-110,034 were tested for their efficacy in male mice (C57BL/6 mice). Mice were housed as four animals per cage under climate-controlled conditions of temperature (20-24° C.), humidity (60-70%), and alternating 12 h light/dark cycles. One group was fed commercial chow diet (Prolab RMH 3000, PMI feeds, St. Louis, Mo.) to serve as a negative control, while the other four groups were fed high fat diet (TD.06414), which provides 60% of calories from fat. Water was provided ad libitum. Plasma was collected once weekly to monitor the level of LDL. After 4 weeks of feeding a high fat-diet, mice were randomly assigned to one of several groups such that the average LDL levels were equal among different groups. […] Blood samples (75 μl) were collected twice weekly after drug administration from the retro-orbital venous plexus via heparinized capillary tubes containing 2 USP units of ammonium heparin per tube (Carolina, Burlington, N.C.). Plasma were separated immediately by centrifugation (5,000×g) for 5 min at room temperature and then kept at −80° C. until assayed for lipid profile. Plasma cholesterol, LDL-C, HDL-C, and triglyceride levels are measured enzymatically. Additionally, the plasma levels of PCSK9 and chemokines/cytokines were measured for potential pleiotropic effects of PCSK9 inhibitors using ELISA and multiplex assays.

HepG2 cells = experiment: Uptake of Fluorescent Dil-LDL in HepG2 cells in situ; format: cell-based; conditions: various concentrations (FIG. 6)
Method: The SBC compounds were validated for their ability to increase uptake of Fluorescent Dil-LDL in HepG2 cells.
We also tested the ability of the PCSK9 compounds to enhance the uptake of Fluorescent Dil-LDL in HepG2 cells. Briefly, HepG2 cells were plated and allowed to grow overnight. Compounds were added to the cells followed by the addition of Fluorescent Dil-LDL. Cells were washed extensively, and the Fluorescent Di-LDL taken up by the cells were measured using the Synergy 2 plate reader (FIG. 6).

PCSK9 = target: T1, PCSK9 (Homo sapiens, UniProt Q8NBP7); conditions: single injection, clinical trial; cited from earlier work
T1 construct: host or cells: patients (endogenous circulating PCSK9)
T1 sequence (Q8NBP7 153-692): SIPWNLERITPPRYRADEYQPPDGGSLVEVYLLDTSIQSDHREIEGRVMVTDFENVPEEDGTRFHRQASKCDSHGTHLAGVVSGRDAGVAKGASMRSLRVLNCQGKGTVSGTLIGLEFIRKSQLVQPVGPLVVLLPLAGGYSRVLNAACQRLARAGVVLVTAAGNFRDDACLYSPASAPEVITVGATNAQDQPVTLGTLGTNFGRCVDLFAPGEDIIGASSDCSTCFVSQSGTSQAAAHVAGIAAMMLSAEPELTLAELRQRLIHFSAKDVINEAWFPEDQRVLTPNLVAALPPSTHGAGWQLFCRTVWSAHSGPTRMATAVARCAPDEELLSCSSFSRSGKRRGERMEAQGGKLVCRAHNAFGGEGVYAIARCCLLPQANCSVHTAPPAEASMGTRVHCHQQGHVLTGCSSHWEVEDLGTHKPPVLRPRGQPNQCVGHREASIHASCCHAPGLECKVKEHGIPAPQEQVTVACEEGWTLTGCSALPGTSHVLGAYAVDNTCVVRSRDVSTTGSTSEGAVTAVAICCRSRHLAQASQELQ

[1] = 8 mg/kg daily s.c., after two weeks, P<0.01 (FIG. 8)
[2] = second study, 40 mg/kg, after three weeks, P<0.01

In the case of Cc1cc(C(=O)C2=C(O)C(=O)N(CCCN3CCOCC3)C2c2ccncc2)ccc1OCc1ccccc1 (stereo not shown) [SBC-115,076], the “mean reduction in total cholesterol levels relative to high fat diet animal levels” value (mice fed high fat diet; [1]) is reported as 32%, the “mean reduction toward return to regular diet cholesterol levels” value (mice fed high fat diet; [1]) is reported as 50% and the “cholesterol levels in mice fed high fat diet” value (mice fed high fat diet; 8 mg/kg daily subcutaneously for two weeks) is reported as “lowered cholesterol levels”. For the same molecule, the “uptake of Fluorescent Dil-LDL” value (HepG2 cells) was “increase in the Fluorescent Dil-LDL uptake using submicromolar concentrations”.

For CC(C)c1c(C(=O)Nc2ccccc2)c(-c2ccccc2)c(-c2ccc(F)cc2)n1CC[C@@H](O)C[C@@H](O)CC(=O)O [Atorvastatin, reference compound], the “mean reduction in total cholesterol levels relative to high fat diet animal levels” value (mice fed high fat diet; [2]) was 27% and the “mean reduction toward return to regular diet cholesterol levels” value (mice fed high fat diet; [2]) was 44%.

In the case of “REGN727: Regeneron/Sanofi fully-human PCSK9 monoclonal antibody”, the “reduction of LDL levels” value (PCSK9) is listed as “more than 60%”.
